{"source": "patent US12466804B2", "about": "(BRISTOL-MYERS SQUIBB COMPANY, priority 2019, dated 2025)", "key": {"nerve-injured mice": {"test_system": "nerve-injured mice", "conditions": "pretreatment, nerve-injured mice (Inoue et al.); cited from earlier work"}, "IPF patients": {"test_system": "IPF patients", "conditions": "26-week clinical trial in IPF patients (Palmer et al.); cited from earlier work"}, "UUO mice": {"test_system": "UUO mice", "conditions": "cited from earlier work"}, "[1]": {"test_system": "pancreatic cancer cell lines", "conditions": "cited from earlier work"}, "[2]": {"test_system": "human foetal lung fibroblasts", "conditions": "Tager et al.; cited from earlier work"}, "[3]": {"test_system": "mouse epithelial renal cell line, MCT", "conditions": "MCT cells, co-treatment with LPA; cited from earlier work"}, "human LPA1": {"biological_target": "T1, human LPA1 (Homo sapiens, UniProt Q92633)", "T1 construct": "expressed in transfected cells; host or cells: Chinese hamster ovary (CHO) cells", "T1 sequence (Q92633 whole entry)": "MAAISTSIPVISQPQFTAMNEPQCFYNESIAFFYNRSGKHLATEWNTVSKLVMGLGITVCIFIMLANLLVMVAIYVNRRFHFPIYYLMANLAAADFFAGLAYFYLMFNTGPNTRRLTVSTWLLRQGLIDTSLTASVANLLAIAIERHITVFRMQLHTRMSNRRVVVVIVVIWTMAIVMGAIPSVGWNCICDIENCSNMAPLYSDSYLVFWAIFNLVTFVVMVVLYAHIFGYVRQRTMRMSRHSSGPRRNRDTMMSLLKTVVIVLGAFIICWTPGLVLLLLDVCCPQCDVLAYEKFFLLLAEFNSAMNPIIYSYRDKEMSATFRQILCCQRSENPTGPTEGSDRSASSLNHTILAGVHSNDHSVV", "assay": "LPA1 functional antagonist assay (LPA-induced calcium flux)", "format": "cell-based", "conditions": "CHO cells overexpressing human LPA1; calcium flux induced by 10 nM LPA; read-out: hLPA1 IC50", "experimental": "The effectiveness of compounds of the present invention as LPA1 inhibitors can be determined in an LPA1 functional antagonist assay as follows:\nThe cells were then equilibrated to room temperature for 30 minutes before the assay. […] IC50 values were determined by fitting data to a 4-parameter logistic equation (GraphPad Prism, San Diego CA)."}}}
{"smiles": "C[C@@H](N)[C@H]1CC[C@H](C(=O)Nc2ccncc2)CC1", "note": "[Example Y-27632]", "values": [{"measurement": "allodynia and hyperalgesia", "setting": "nerve-injured mice", "value": "completely abolished"}]}
{"smiles": "Cc1noc(-c2ccc(-c3ccc(C4(C(=O)O)CC4)cc3)cc2)c1NC(=O)O[C@H](C)c1ccccc1", "note": "[BMS-986020]", "values": [{"measurement": "rate of FVC (forced vital capacity) decline", "setting": "IPF patients", "value": "significantly reduce"}]}
{"smiles": "Cc1noc(-c2ccc(CSCCC(=O)O)cc2)c1NC(=O)OC(C)c1ccccc1Cl", "note": "(centres unmarked) [Ki16425]", "values": [{"measurement": "development of renal fibrosis", "setting": "UUO mice", "value": "closely resembled the profile of LPA1 (−/−) mice"}, {"measurement": "LPA-induced and ascites-induced invasion activity", "setting": "[1]; highly peritoneal metastatic pancreatic cancer cell line", "value": "blocked"}, {"measurement": "in vitro migration in response to LPA and peritoneal fluid (ascites) from pancreatic cancer patients", "setting": "[1]; pancreatic cancer cell lines (Yamada et al.)", "value": "effectively blocked"}, {"measurement": "chemotaxis of human foetal lung fibroblasts induced by BAL from IPF patients", "setting": "[2]", "value": "blocked"}, {"measurement": "LPA-induced expression of the profibrotic cytokine CTGF", "setting": "[3]", "value": "almost completely suppressed"}]}
{"smiles": "CCCCOC(=O)NCc1c(-c2ccc(OC[C@@H]3CC[C@H]3C(=O)O)c(C)n2)nnn1C", "note": "(racemic) [Example 42, (±)-(1R,2R)-2-(((6-(5-(((butoxy-carbonyl)amino)methyl)-1-methyl-1H-1,2,3-triazol-4-yl)-2-methyl-pyridin-3-yl)oxy)methyl)cyclobutanecarboxylic acid]", "values": [{"measurement": "IC50", "setting": "human LPA1", "value": 649, "unit": "nM"}]}
